Tests used:
[1] = molecular target: dipeptidyl peptidase IV (DPP IV) (Homo sapiens, UniProt P27487); assay: Metabolic stability towards dipeptidyl peptidase IV; type: in vitro ADME
Procedure: Each compound is dissolved in 50 mg/ml of BSA in an aqueous 1% trifluoroacetic acid solution to obtain a concentration of 1 mg/ml.
50 μl samples of the above-prepared solution containing 1 mg/ml of the peptide are added to 940 μl of 0.1M TRIS, pH 8.0. After analysis of the solution by HPLC to determine the amount of peptide, 10 μl of an aqueous solution containing 48 milli-units of dipeptidyl peptidase IV (DPP IV) are added, and the samples are analysed by HPLC at time T0 and after incubation for 10 minutes at 37° C.
The measurement results enable evaluation of the amount of peptide remaining and are expressed as a percentage in relation to T0.

GLP-1 receptor [2] = molecular target: T1, GLP-1 receptor (Rattus norvegicus, UniProt P32301); assay: GLP-1 receptor binding study (RIN T3 membranes, [125I]-GLP-1); details: [125I]-GLP-1, 45 min at 37° C., read-out: affinity (IC50)
T1 construct: endogenous in cells; host or cells: RIN T3 cells (membranes in A1, whole cells in A2)
T1 sequence (P32301 22-463): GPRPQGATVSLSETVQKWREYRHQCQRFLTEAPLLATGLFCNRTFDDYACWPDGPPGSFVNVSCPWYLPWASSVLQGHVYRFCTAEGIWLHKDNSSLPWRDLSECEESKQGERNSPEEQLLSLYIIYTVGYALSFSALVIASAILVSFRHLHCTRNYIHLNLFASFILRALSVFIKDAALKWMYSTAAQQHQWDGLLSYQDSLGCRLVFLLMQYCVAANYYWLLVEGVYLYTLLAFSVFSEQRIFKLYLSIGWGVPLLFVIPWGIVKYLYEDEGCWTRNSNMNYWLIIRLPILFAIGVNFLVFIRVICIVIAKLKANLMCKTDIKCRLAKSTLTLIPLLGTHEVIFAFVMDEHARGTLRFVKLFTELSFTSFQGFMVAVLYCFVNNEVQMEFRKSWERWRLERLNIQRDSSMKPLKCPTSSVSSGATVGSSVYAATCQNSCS
Procedure: The GLP-1 receptor binding studies were carried out using RIN T3 membranes in a […] Tris-HCl buffer pH 7.5 containing 4% BSA and […] of bacitracin. The membranes (20 to 30 μg) are incubated in a final volume of 500 μl with approximately 15 fmol of [125I]-GLP-1 (50,000 cpm) and the cold competitor for 45 min. at 37° C. The reaction is stopped by the addition of 750 μl of cold KRP buffer, pH 7.5, containing 3% BSA. The mixture is centrifuged at 12,000×g (4° C., 5 min). The residue is resuspended in 1 ml of cold KRP buffer and sedimented by a further centrifugation, and the radioactivity is measured. The results are expressed as IC50.

GLP-1 receptor [3] = molecular target: T1, GLP-1 receptor; assay: Agonist character: cyclic AMP production in RIN T3 cells; type: cell-based; details: 20 minutes at 25° C., 100% = cAMP induced by 10^−8M GLP-1
Procedure: The agonist character of the compounds of the invention was determined by measuring the production of cyclic AMP after activation of the receptor by the different products being tested.
RIN T3 cells are cultured for 6 days and the culture medium is chanced 1 day before the experiment. The cells (3×10^5 per well) are washed twice with DMEM before the addition of 0.5 ml of DMEM containing 1% BSA, 0.2 ml of IBMX and the peptide being tested. After incubation for 20 minutes at 25° C., the intracellular cAMP is extracted, succinylated and quantified by radioimmunoassay.
The reference value of 100% corresponds to the production of cAMP induced by a concentration of 10^−8M GLP-1 and the value 0% corresponds to the basal production in the absence of GLP-1.

in vitro = in vitro ADME; details: human, plasma
Procedure: An aliqout of 50 μg/ml of a solution containing the peptide to be studied is incubated in human plasma at 37° C. An HPLC linear analysis method allows measurement of the amount of peptide at time T0, then after incubation for 5, 10, 15, 30 and 60 minutes.

Sequence of dipeptidyl peptidase IV (DPP IV) (P27487 whole entry, species assumed): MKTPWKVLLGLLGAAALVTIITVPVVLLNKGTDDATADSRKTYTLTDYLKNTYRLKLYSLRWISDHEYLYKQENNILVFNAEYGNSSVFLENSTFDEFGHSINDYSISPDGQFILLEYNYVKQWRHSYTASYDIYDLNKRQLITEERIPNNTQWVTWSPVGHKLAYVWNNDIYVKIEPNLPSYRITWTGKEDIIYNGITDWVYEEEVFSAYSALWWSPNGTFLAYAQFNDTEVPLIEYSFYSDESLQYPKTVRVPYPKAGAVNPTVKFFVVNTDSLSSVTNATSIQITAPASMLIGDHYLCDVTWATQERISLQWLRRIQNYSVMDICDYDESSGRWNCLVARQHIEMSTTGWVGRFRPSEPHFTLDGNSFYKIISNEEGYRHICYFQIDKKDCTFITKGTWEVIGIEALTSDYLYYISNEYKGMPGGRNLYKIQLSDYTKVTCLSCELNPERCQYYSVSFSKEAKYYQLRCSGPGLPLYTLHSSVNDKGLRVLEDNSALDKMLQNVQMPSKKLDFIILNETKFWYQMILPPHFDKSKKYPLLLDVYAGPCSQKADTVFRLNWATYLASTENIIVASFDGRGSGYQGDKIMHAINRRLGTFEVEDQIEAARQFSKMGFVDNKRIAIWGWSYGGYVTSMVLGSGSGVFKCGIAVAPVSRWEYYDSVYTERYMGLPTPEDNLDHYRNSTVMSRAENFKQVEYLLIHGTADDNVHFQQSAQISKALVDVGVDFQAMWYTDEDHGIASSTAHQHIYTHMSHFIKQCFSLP

Compound	DDP IV % peptide remaining ([1]; incubation time 10 minutes, 37° C., 48 milli-units DPP IV, 0.1M TRIS pH 8.0, relative to T0)	IC50 (GLP-1 receptor [2])	EC50 (GLP-1 receptor [3])	remaining at 5 min, 50 μg/ml (in vitro)	remaining at 10 min, 50 μg/ml (in vitro)	remaining at 0.25 h, 50 μg/ml (in vitro)	remaining at 0.5 h, 50 μg/ml (in vitro)	remaining at 1 h, 50 μg/ml (in vitro)	remaining at 10 min, 50 μg/ml ([1]; isolated enzyme dpp iv, pH 8)
Glucagon-Like Peptides-1 (7-37) and (7-36) NH2 [^tGLP1, reference compound]	8%	–	–	–	–	–	–	–	–
CC[C@H](C)[C@H](NC(=O)[C@H](Cc1ccccc1)NC(=O)[C@H](CCC(=O)O)NC(=O)[C@H](CCCCN)NC(=O)[C@H](C)NC(=O)[C@H](C)NC(=O)[C@H](CCC(N)=O)NC(=O)CNC(=O)[C@H](CCC(=O)O)NC(=O)[C@H](CC(C)C)NC(=O)[C@H](Cc1ccc(O)cc1)NC(=O)[C@H](CO)NC(=O)[C@H](CO)NC(=O)[C@@H](NC(=O)[C@H](CC(=O)O)NC(=O)[C@H](CO)NC(=O)[C@@H](NC(=O)[C@H](Cc1ccccc1)NC(=O)[C@@H](NC(=O)CNC(=O)[C@H](CCC(=O)O)NC(=O)[C@@H](C)NC(=O)[C@@H](N)Cc1c[nH]cn1)[C@@H](C)O)[C@@H](C)O)C(C)C)C(=O)N[C@@H](C)C(=O)N[C@@H](Cc1c[nH]c2ccccc12)C(=O)N[C@@H](CC(C)C)C(=O)N[C@H](C(=O)N[C@@H](CCCCN)C(=O)NCC(=O)NCC(N)=O)C(C)C [Example 7]	–	0.33 nM	1.02 nM	100%	100%	100%	100%	100%	100%

Source: patent publication US6620910B1, “Peptide compounds analogues of the glucagon-like peptide-1 (7-37)” (Les Laboratoires Servier, priority 1998, dated 2003)
